Test results published in patent publication US7741436B2, “Biologically active peptides and their use for repairing injured nerves” (priority 2001, dated 2010).

Columns and labels:
Assay type in all cases: cell-based
[1] = tested on: human embryonic neocortical neurons; test: Survival of human embryonic neocortical neurons on injured glial cells of the human spinal cord; details: 72 hrs
Text: (§1) The CNS tissues were first placed in cold saline. The spinal cord tissues were identified under a stereomicroscope, and carefully freed of meninges. To obtain monolayer cultures of human spinal cord glial cells, the cells were dissociated by mechanical trituration using a Pasteur-pipette, and placed in Petri dishes (Corning, N.Y., USA) containing 10% fetal calf serum (Hyclone, Logan, UH) in DMEM-F12 (Gibco, U.K.) supplemented with penicillin and streptomycin as described (Liesi et al. 2001).
Human embryonic spinal cord glial cells were cultured till confluency in 10% fetal bovine serum as described (Liesi et al., 2001). The confluent cultures were trypsinized and cells replated at 100 000 cells/22 mm glass coverslip, and grown till confluency. The confluent cultures were changed into normal adult human serum, and injured by using a 18 G gauge sterile needle. The KDI peptide was added at 1 μg/ml (3 μM) and at 10 μg/ml (30 μM) concentration and the P1543 peptide (p20) was added at a concentration of 1 μM, and 50-100 000 freshly isolated human embryonic neocortical neurons were added on the glial cells. The control cultures had neurons added either without the peptide or the lesion. The cells were cultured for 72 hrs in 5% CO2/95% air at +37° C., and fixed for quantitation of neurons and measurement of their neuritic lengths. The neurons on glial monolayers were visualized by immunostaining using mouse monoclonal antibodies against a neuron-specific tubulin isoform (TUJ1). The results were evaluated by counting neurons in six random fields on 3 different coverslip per experiment. In this way, more than 300 neurons were counted per experiment. Statistical analysis of the results was performed using one-way analysis of Varians (ANOVA) and Student-Newman-Keuls multiple comparisons test on the Instat (v2.03) program (GraphPad, San Diego, Calif.).

[2] = tested on: human embryonic spinal cord neurons; test: Survival and neurite outgrowth of human embryonic spinal cord neurons on injured glial cells of the human spinal cord; details: for survival (numbers) of spinal cord neurons on lesioned glial monolayers / numbers of spinal cord neurons extending long neurites (>100 μm): 72 hrs; for numbers of spinal cord neurons extending long neurites (>100 μm): lesioned glial monolayers
Text: as §1
Freshly isolated tissue from the human embryonic spinal cord (8-10 weeks of age) was mechanically dissociated and cells were plated at 50,000 on a 22 mm glass coverslip confluent with human embryonic spinal cord glia. The glial monolayers were injured using a 18 G needle prior to plating of the neurons. The cells were cultured in normal adult human serum for 72 hrs. The numbers of spinal cord neurons on the glial monolayers in the presence or absence of KDI (0.0355 μg/ml-1.0 μg/ml) was estimated on TUJ1-labelled cultures. The statistical analysis was performed using one-way-variance analysis (ANOVA), and the Student-Newman-Keuls multiple comparisons test.
Confluent cultures of the spinal cord glial cells were trypsinized using Trypsin-EDTA, and cells replated at a density of 5×10^4 on a 22 mm glass coverslip. The cells were cultivated until they formed confluent monolayers. At this point, their culture medium was changed into 10% normal adult human serum in DMEM-F12, and glial monolayers were injured using 18 G-needle. After injury, the KDI peptide (Multiple Peptide Systems, La Jolla, Calif., USA) was added into the culture medium after which a suspension of freshly dissociated cells from spinal cord or neocortex was added at 2×10^4 on one coverslip. After 24-48 hrs, the cultures were fixed in 2% paraformaldehyde in PBS, pH 7.4 for 15 min and immunostained for TUJ1 as described previously (Liesi et al., 2001).
Viability and neurite outgrowth of human CNS-neurons on the spinal cord glial cells were evaluated by counting 10 random fields of cells in 6 different cultures. A total of 265 cells were counted. The numbers of long neurites (>10 cell soma) were estimated similarly. One-way-variance analysis (ANOVA) was used to evaluate the results.

[3] = tested on: human CNS neurons; test: Attachment and neurite outgrowth of human embryonic CNS neurons on synthetic peptides coupled to glass; details: 0.1-10 μg/ml, peptide covalently cross-linked to glass, 24 hrs
Method: The cells were dissociated by trituration in a sterile culture medium (RPMI 1640) containing penicillin (100 U/ml), streptomycin (100 μg/ml) and 200 μM L-glutamine. The dissociated cells were plated on glass coverslips pre-coated (Liesi et al., 1989) with mouse laminin-1 (Boehringer-Mannheim, Germany) or with the peptides KDI-gc and RDIAEIIKDI-gc (SEQ ID NO: 1), as described elsewhere (Matsuzawa et al., 1996b). The peptides were from the Multiple Peptide Systems (La Jolla, Calif.). The cultures were maintained for 24 hrs, fixed in 2% paraformaldehyde, and processed for immunocytochemistry.
Immunocytochemistry for neuron specific tubulin isoform TUJ1 was performed as described elsewhere (Liesi et al., 2001). In short, the cells were permeabilized in methanol for 5 min at −20° C., washed in PBS and incubated with monoclonal TUJ1-antibodies for 1 hr at room temperature. The antibody was of high specificity and was used at 1:500 dilution. After immunocytochemistry, the coverslips were mounted in PBS:glycerol (1:1) and viewed with Olympus Provis fluorescence microscope with appropriate filter combinations.

[4] = tested on: embryonal bodies of human CNS; test: Attachment and neurite outgrowth of embryonal bodies on white matter of cryostat sections of adult human spinal cord (myelin influence); details: 5-10 μg/ml
Method: Embryonal bodies containing immature stem cells from spinal cord, or neocortex were obtained by placing the mechanically dissociated CNS-cells on 10 cm Petri dishes (Corning) in Neurobasal medium (Gibco, U.K.) with B27-supplement (Gibco, U.K.), antibiotics and 500 μM L-glutamine.
Cryostat sections (10 μm) of adult normal human spinal cord were cut in coronal plain on SuperFrost Plus slides (Menzel, Germany). Each slide had three sections. The slides with freshly cut sections were immediately placed in sterile Quadriperm-plates (In Vitro Systems & Services, Germany) and 10 ml of culture medium was added. The culture medium was 1.0% normal adult human serum in DMEM-F12 supplemented with penicillin and streptomycin. Two embryonal bodies were placed on areas of white matter on top of each section, and the cultures were placed in the incubator with 5% CO2/95% air at 98% humidity at +37° C. The KDI peptide (Multiple Peptide Systems, La Jolla, Calif.) was added in the medium at 1-10 μg/ml, and the 10-amino acid precursor (RDIAEIIKDI (SEQ ID NO: 1)) was added at equimolar concentrations. The control cultures received no peptide. After 10 days, the cultures were fixed and immunostained for neurofilament proteins and additional neuronal and glial markers to identify the neurites and cells within the embryonal bodies. Numbers of embryonal bodies attached, and extending neurites directly on the adult white matter tissue were counted on each slide and the results analyzed using one-way-variance-analysis (ANOVA). Numbers of long neurites (>100 μm) extending from embryonal bodies in control cultures and in cultures with 5-10 μg/ml of the KDI peptide in the culture medium were counted and a non-parametric Whitney-Mann test was used to analyze those results.

KDI
attachment and neurite outgrowth of neocortical neurons on lesioned spinal cord glial cells ([1]; 1 μg/ml soluble peptide, vs lesion control): significantly (p<0.001) improved
improvement of attachment and neurite outgrowth of neocortical neurons compared to that induced by p20 (1 μg/ml) ([1]; 1 μg/ml): statistically significant
neuronal survival (attachment and neurite outgrowth) of neocortical neurons on lesioned spinal cord glial cells ([1]; 10 μg/ml soluble peptide, vs unlesioned and lesioned controls): no statistical difference of neuronal survival
survival (numbers) of spinal cord neurons on lesioned glial monolayers ([2]; 0.0355 μg/ml): significantly (p<0.001) enhanced survival
neurite extension of TUJ1-immunoreactive spinal cord neuron on injured glial monolayers ([2]; 0.1 μg/ml in culture medium, 48 hrs): extends a long neurite
survival (numbers) of spinal cord neurons on lesioned glial monolayers ([2]; 0.1 μg/ml): significantly (p<0.001) enhanced survival
numbers of spinal cord neurons extending long neurites (>100 μm) ([2]; 0.1 μg/ml, p<0.001): significantly increased the numbers of long neurites
survival (numbers) of spinal cord neurons on lesioned glial monolayers ([2]; 0.5 μg/ml): did not promote survival of the spinal cord neurons any better than the lesion by itself
survival (numbers) of spinal cord neurons on lesioned glial monolayers ([2]; 1.0 μg/ml): did not promote survival of the spinal cord neurons any better than the lesion by itself
numbers of spinal cord neurons extending long neurites (>100 μm) ([2]; 1.0 μg/ml, vs lesion-control): significantly increased the numbers of long neurites
attachment and neurite outgrowth of human CNS neurons [3]: supported attachment and neurite outgrowth
extension of neurofilament-positive neurites from spinal cord embryonal bodies on white matter ([4]; 10 days in vitro): long neurofilament-positive nerve fibres extend out of the embryonal bodies
numbers of long neurites extending from embryonal bodies onto white matter ([4]; 10 days in vitro, p<0.0001 vs control): a large number of long neurites extended
numbers of embryonal bodies attached and sending out neurites on white matter ([4]; 10 days, vs control (p<0.01) and vs P1543 (p<0.01)): significantly higher
